TGI and GI50 data for 11 compounds are collected here from PubChem BioAssay (NCI).

Among the test systems are ACHN renal; COLO 205 colon; EKVX NSCLC; HL-60(TB) leukemia; KM12 colon; NCI-H460 lung; OVCAR-3 ovarian; OVCAR-4 ovarian; U251 CNS; LOX IMVI melanoma.
What all share (experiment): growth of human tumour cells (NCI), 48 h

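Following 48 hours of exposure in 96-well plates, responses at five concentrations were used to interpolate endpoints linearly. GI50 marks 50% less growth. TGI denotes the concentration required for complete inhibition of growth.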

Consider `CC1=C(C(=O)NCc2ccccc2)C(c2ccc(N(C)C)cc2)C(C(=O)NCc2ccccc2)=C(C)N1`, for which the TGI in the assay on ACHN renal, in the assay on COLO 205 colon, in the assay with EKVX NSCLC, with HL-60(TB) leukemia, in the assay with KM12 colon and in the assay with NCI-H460 lung was over 100 µM each time. In addition, the TGI in the assay on OVCAR-3 ovarian, with OVCAR-4 ovarian and in the assay with U251 CNS was over 100 µM each time.

Regarding `O=C(Oc1c(Cl)c(Cl)c(Cl)c(Cl)c1Cl)C1CCCN1C(=O)OCc1ccccc1` (centres undefined), the GI50 in the assay on ACHN renal was 2.62 µM; with COLO 205 colon, 2.01 µM; in the assay on HL-60(TB) leukemia it was 2.42 µM; with KM12 colon it was 3.62 µM; in the assay on LOX IMVI melanoma, 2.85 µM; with NCI-H460 lung, 3.29 µM. Also, the GI50 was 3.27 µM with OVCAR-3 ovarian, 2.66 µM in the assay on OVCAR-4 ovarian and 3.34 µM in the assay with U251 CNS. The TGI with ACHN renal is 8.09 µM; in the assay with COLO 205 colon it was 3.88 µM; with HL-60(TB) leukemia, 6.09 µM; with KM12 colon, 13 µM; with LOX IMVI melanoma, 8.6 µM; in the assay with NCI-H460 lung it was 10.6 µM. In addition, the values for the TGI with OVCAR-3 ovarian, in the assay on OVCAR-4 ovarian and in the assay with U251 CNS were 9.84 µM, 10.6 µM and 12.6 µM, respectively.

As for `CN(C)C(=S)/N=C(\N)N(C)C`, the TGI in the assay on ACHN renal, in the assay with EKVX NSCLC, in the assay with HL-60(TB) leukemia, in the assay on KM12 colon, with LOX IMVI melanoma and with NCI-H460 lung was over 100 µM in each case. Also, the TGI in the assay on OVCAR-4 ovarian and with U251 CNS was over 100 µM throughout.

On to `CC1=CC[C@@H]2C(=O)C=CC=C[C@H]12.[C-]#[O+].[C-]#[O+].[C-]#[O+].[Fe]`, for which the GI50 in the assay on ACHN renal, in the assay with HL-60(TB) leukemia, with KM12 colon, with LOX IMVI melanoma, in the assay on NCI-H460 lung and in the assay with OVCAR-3 ovarian was over 100 µM throughout. Besides, the GI50 with OVCAR-4 ovarian and in the assay on U251 CNS was over 100 µM in each case. Further, the TGI in the assay with ACHN renal, in the assay with HL-60(TB) leukemia, with KM12 colon, with LOX IMVI melanoma, in the assay with NCI-H460 lung and in the assay on OVCAR-3 ovarian was over 100 µM each time. Moreover, the TGI with OVCAR-4 ovarian and in the assay on U251 CNS was over 100 µM in each case.

In the case of `CC(C)(C)CC(C)(C)c1cc2c(O)c(c1)Cc1cc(C(C)(C)CC(C)(C)C)cc(c1O)Cc1cc(C(C)(C)CC(C)(C)C)cc(c1O)Cc1cc(C(C)(C)CC(C)(C)C)cc(c1O)Cc1cc(C(C)(C)CC(C)(C)C)cc(c1O)Cc1cc(C(C)(C)CC(C)(C)C)cc(c1O)Cc1cc(C(C)(C)CC(C)(C)C)cc(c1O)Cc1cc(C(C)(C)CC(C)(C)C)cc(c1O)C2`, the TGI in the assay with ACHN renal, with COLO 205 colon, in the assay on EKVX NSCLC, in the assay with HL-60(TB) leukemia, in the assay on KM12 colon and in the assay with NCI-H460 lung was over 100 µM in each case. Also, the TGI with OVCAR-3 ovarian, with OVCAR-4 ovarian and in the assay with U251 CNS was over 100 µM each time.

For `O=C1c2ccccc2-c2c1c1ccc([N+](=O)[O-])cc1c(=O)n2CCN1CCOCC1`, the GI50 was 33.4 µM in the assay on ACHN renal; over 100 µM with COLO 205 colon; over 100 µM with EKVX NSCLC; over 100 µM in the assay with KM12 colon; 37.8 µM in the assay on LOX IMVI melanoma; 78.4 µM in the assay with NCI-H460 lung. For the same compound, the values for the GI50 in the assay with OVCAR-3 ovarian, with OVCAR-4 ovarian and with U251 CNS were over 100 µM, over 100 µM and 49.6 µM, respectively. The TGI in the assay with ACHN renal, with COLO 205 colon, with EKVX NSCLC, in the assay on KM12 colon, in the assay on LOX IMVI melanoma and in the assay with NCI-H460 lung was over 100 µM in each case. In addition, the TGI in the assay with OVCAR-3 ovarian, in the assay with OVCAR-4 ovarian and in the assay with U251 CNS was over 100 µM in each case.

Turning to `CCCCCC/C=C\CCCCCCCCCc1cccc(OC)c1O`, the TGI with ACHN renal, in the assay with COLO 205 colon, in the assay on EKVX NSCLC, in the assay on HL-60(TB) leukemia, with KM12 colon and in the assay on LOX IMVI melanoma was over 100 µM each time. Also, the TGI in the assay with U251 CNS was over 100 µM.

As for `Cc1c(-c2cc(-c3ccccc3)n[nH]c2=O)c2ccccc2n1C`, the TGI with ACHN renal, with COLO 205 colon, in the assay with EKVX NSCLC, with HL-60(TB) leukemia, in the assay on KM12 colon and in the assay on NCI-H460 lung was over 100 µM each time. Besides, the TGI in the assay with OVCAR-3 ovarian, with OVCAR-4 ovarian and with U251 CNS was over 100 µM each time.

For the compound `O=C1c2ccccc2-c2c1c1ccc3ccccc3c1n2-c1ccccc1`, the GI50 in the assay with ACHN renal is 20.5 µM; with COLO 205 colon it was 30.7 µM; with EKVX NSCLC it was 40 µM; with KM12 colon it was 21.3 µM; with LOX IMVI melanoma, 39 µM; with NCI-H460 lung, 31.7 µM. The GI50 with OVCAR-3 ovarian was 24.6 µM; with OVCAR-4 ovarian it was over 100 µM; in the assay with U251 CNS, 18.9 µM. Besides, the TGI is 40.2 µM in the assay on ACHN renal; over 100 µM with COLO 205 colon; over 100 µM in the assay with EKVX NSCLC; over 100 µM in the assay on KM12 colon; over 100 µM with LOX IMVI melanoma; over 100 µM with NCI-H460 lung. The TGI in the assay on OVCAR-3 ovarian was 57.6 µM; with OVCAR-4 ovarian, over 100 µM; in the assay on U251 CNS, 35.7 µM.

As to `C=CC(=O)N1CCC(CNc2ncnc(N)c2-c2ccc(Oc3ccccc3)cc2)CC1`, the GI50 with ACHN renal is 23.4 µM; in the assay on EKVX NSCLC, 24.1 µM; with HL-60(TB) leukemia, 19.9 µM; in the assay on KM12 colon it was 28.7 µM; in the assay with LOX IMVI melanoma, 16.3 µM; with NCI-H460 lung, 34.8 µM. In addition, the GI50 with OVCAR-3 ovarian is 27.6 µM; in the assay on OVCAR-4 ovarian, 24.1 µM; in the assay with U251 CNS, 25.7 µM. Further, the TGI was 70.7 µM in the assay with ACHN renal; over 100 µM with EKVX NSCLC; 46.4 µM in the assay on HL-60(TB) leukemia; over 100 µM in the assay with KM12 colon; 33.2 µM with LOX IMVI melanoma; over 100 µM with NCI-H460 lung. Further, the TGI was 85.1 µM in the assay on OVCAR-3 ovarian, over 100 µM in the assay on OVCAR-4 ovarian and over 100 µM with U251 CNS.

As to `O=C(/C=C/c1ccco1)N1CCN(Cc2ccccc2)CC1`, the TGI in the assay on ACHN renal, with EKVX NSCLC, in the assay with HL-60(TB) leukemia, with KM12 colon, in the assay on LOX IMVI melanoma and in the assay on NCI-H460 lung was over 100 µM throughout. Also, the TGI in the assay on OVCAR-3 ovarian, in the assay on OVCAR-4 ovarian and in the assay with U251 CNS was over 100 µM each time.
